# Literature values as cited in patent US20150272967A1, “EXTREMELY HIGH LOADING DOSE” (priority 2013, published 2015).
# How the values were obtained:
# prostate cancer patients = conditions: dose significantly lower than that of the invention
# breast cancer patients = conditions: modest low doses
Molecule,patients showing improvement (significant decrease in the number of positive cancer biopsy samples) (prostate cancer patients),disease free survival (breast cancer patients; 25.5 without supplementation),median overall survival (breast cancer patients; 32.8 without supplementation)
"C=C1CC[C@H](O)C/C1=C/C=C1\CCC[C@]2(C)[C@@H]([C@H](C)CCCC(C)C)CC[C@@H]12 [Vitamin D3, cholecalciferol]",55%,,
Vitamin D,,32.6 months,43.8 months
